Measured values as given in patent US6706663B2, “Herbicidal 3-heterocyclic substituted benzisothiazole and benzisoxazole compounds” (Wyeth, priority 2000, dated 2004).

Experiments:
[1] = system: SETVI (Setaria viridis); test: Preemergence herbicidal evaluation; type: in vivo, (L.) Beau; settings: rated 4-5 weeks after treatment
Summary of the method: (§1)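 Visual 0-9 rating versus untreated control, taken four to five weeks post-treatment, scoring stand, vigor, malformation, size, chlorosis and overall appearance. Compound applied as aqueous acetone spray to freshly seeded soil cups, then kept under standard greenhouse care.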

[2] = system: ECHCG (Echinochloa crus-galli); test: Preemergence herbicidal evaluation; type: in vivo, (L.) Beau; settings: rated 4-5 weeks after treatment
Summary of the method: as §1

[3] = system: GALAP (Galium aparine); test: Postemergence herbicidal evaluation; type: in vivo; settings: for GALAP herbicidal rating: postemergence
Summary of the method: (§2)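 Visual 0–9 injury scores versus control plants, covering stand, vigour, malformation, size, chlorosis and general appearance, taken four to five weeks post-spray and averaged over replicate tests. Plants were sprayed at roughly two weeks old and held on greenhouse benches.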

[4] = system: ORYSAT (Rice, Tebonnet); test: Postemergence herbicidal evaluation; type: in vivo, Oryza sativa, (L.) Tebonnet; settings: for ORYSAT herbicidal rating: postemergence
Summary of the method: as §2

[5] = system: ZEAMX (Corn, Field); test: Postemergence herbicidal evaluation; type: in vivo, Zea mays, L.; settings: for ZEAMX herbicidal rating: postemergence
Summary of the method: as §2

[6] = system: ORYSAT (Rice, Tebonnet); test: Preemergence herbicidal evaluation; type: in vivo, Oryza sativa, (L.) Tebonnet; settings: rated 4-5 weeks after treatment
[7] = system: GALAP (Galium aparine); test: Preemergence herbicidal evaluation; type: in vivo; settings: rated 4-5 weeks after treatment
Summary of the method: as §1

[8] = system: IPOHE (Ipomoea hederacea); test: Postemergence herbicidal evaluation; type: in vivo, (L.) Jacq.; settings: for IPOHE herbicidal rating: postemergence
Summary of the method: as §2

[9] = system: GLXMAW (Soybean, Williams); test: Postemergence herbicidal evaluation; type: in vivo, Glycine max, (L.) Merr. cv Williams; settings: for GLXMAW herbicidal rating: postemergence
Summary of the method: as §2

[10] = system: ABUTH (Abutilon theophrasti); test: Postemergence herbicidal evaluation; type: in vivo, Medic.; settings: for ABUTH herbicidal rating: postemergence
Summary of the method: as §2

[11] = system: CHEAL (Chenopodium album); test: Postemergence herbicidal evaluation; type: in vivo, L.; settings: for CHEAL herbicidal rating: postemergence
Summary of the method: as §2

[12] = system: AMBEL (Ambrosia artemisifolia); test: Postemergence herbicidal evaluation; type: in vivo, L.; settings: for AMBEL herbicidal rating: postemergence
Summary of the method: as §2

[13] = system: CASOB (Cassia obtusifolia); test: Postemergence herbicidal evaluation; type: in vivo, L.; settings: for CASOB herbicidal rating: postemergence
Summary of the method: as §2

[14] = system: TRZAWR (Wheat, Winter, cv Riband); test: Preemergence herbicidal evaluation; type: in vivo, Triticum aestivum; settings: rated 4-5 weeks after treatment
Summary of the method: as §1

## Cn1c(C(F)(F)F)cc(=O)n(-c2ccc3snc(C4OCCCS4)c3c2)c1=O (stereo not drawn) [Compound 34, 1-methyl-3-[3-(1,3-oxathian-2-yl)-1,2-benzisothiazol-5-yl]-6-(trifluoromethyl)uracil]
[1]; Rate 0.0620 kg/ha
  SETVI preemergence herbicidal rating: 9.0
  Preemergence herbicidal rating SETVI: 9.0
[1]; Rate 0.1250 kg/ha
  SETVI preemergence herbicidal rating: 9.0
  Preemergence herbicidal rating SETVI: 9.0
[1]; Rate 0.2500 kg/ha
  SETVI preemergence herbicidal rating: 9.0
  Preemergence herbicidal rating SETVI: 9.0
[2]; Rate 0.0620 kg/ha
  ECHCG preemergence herbicidal rating: 7.0
  Preemergence herbicidal rating ECHCG: 9.0
[2]; Rate 0.1250 kg/ha
  ECHCG preemergence herbicidal rating: 8.0
  Preemergence herbicidal rating ECHCG: 9.0
[2]; Rate 0.2500 kg/ha
  ECHCG preemergence herbicidal rating: 9.0
  Preemergence herbicidal rating ECHCG: 9.0
[3]; rate 0.0320 kg/ha
  GALAP herbicidal rating: 2.0
  Postemergence herbicidal rating, GALAP: 6.0
[3]; rate 0.0620 kg/ha
  GALAP herbicidal rating: 6.0
  Postemergence herbicidal rating, GALAP: 7.0
[4]; rate 0.0320 kg/ha
  ORYSAT herbicidal rating: 5.5
  Postemergence herbicidal rating, ORYSAT: 7.0
[4]; rate 0.0620 kg/ha
  ORYSAT herbicidal rating: 6.5
  Postemergence herbicidal rating, ORYSAT: 7.0
[5]; rate 0.0320 kg/ha
  ZEAMX herbicidal rating: 5.0
  Postemergence herbicidal rating, ZEAMX: 6.0
[5]; rate 0.0620 kg/ha
  ZEAMX herbicidal rating: 7.0
  Postemergence herbicidal rating, ZEAMX: 7.0
[6]; Rate 0.0620 kg/ha
  ORYSAT preemergence herbicidal rating: 5.5
  Preemergence herbicidal rating ORYSAT: 3.0
[6]; Rate 0.1250 kg/ha
  ORYSAT preemergence herbicidal rating: 8.0
  Preemergence herbicidal rating ORYSAT: 4.5
[6]; Rate 0.2500 kg/ha
  ORYSAT preemergence herbicidal rating: 9.0
  Preemergence herbicidal rating ORYSAT: 5.5
[7]; Rate 0.0620 kg/ha
  GALAP preemergence herbicidal rating: 5.0
  Preemergence herbicidal rating GALAP: 9.0
[7]; Rate 0.1250 kg/ha
  GALAP preemergence herbicidal rating: 9.0
  Preemergence herbicidal rating GALAP: 9.0
[7]; Rate 0.2500 kg/ha
  GALAP preemergence herbicidal rating: 9.0
  Preemergence herbicidal rating GALAP: 9.0
[8]; rate 0.0320 kg/ha
  IPOHE herbicidal rating: 9.0
  Postemergence herbicidal rating, IPOHE: 9.0
[8]; rate 0.0620 kg/ha
  IPOHE herbicidal rating: 9.0
  Postemergence herbicidal rating, IPOHE: 9.0
[9]; rate 0.0320 kg/ha
  GLXMAW herbicidal rating: 6.5
  Postemergence herbicidal rating, GLXMAW: 9.0
[9]; rate 0.0620 kg/ha
  GLXMAW herbicidal rating: 6.5
  Postemergence herbicidal rating, GLXMAW: 9.0
[10]; rate 0.0320 kg/ha
  ABUTH herbicidal rating: 9.0
  Postemergence herbicidal rating, ABUTH: 9.0
[10]; rate 0.0620 kg/ha
  ABUTH herbicidal rating: 9.0
  Postemergence herbicidal rating, ABUTH: 9.0
[11]; rate 0.0320 kg/ha
  CHEAL herbicidal rating: 7.0
  Postemergence herbicidal rating, CHEAL: 7.0
[11]; rate 0.0620 kg/ha
  CHEAL herbicidal rating: 9.0
  Postemergence herbicidal rating, CHEAL: 9.0
[12]; rate 0.0320 kg/ha
  AMBEL herbicidal rating: 7.0
  Postemergence herbicidal rating, AMBEL: 9.0
[12]; rate 0.0620 kg/ha
  AMBEL herbicidal rating: 9.0
  Postemergence herbicidal rating, AMBEL: 9.0
[13]; rate 0.0320 kg/ha
  CASOB herbicidal rating: 6.0
  Postemergence herbicidal rating, CASOB: 9.0
[13]; rate 0.0620 kg/ha
  CASOB herbicidal rating: 6.0
  Postemergence herbicidal rating, CASOB: 9.0
[14]; Rate 0.0620 kg/ha
  TRZAWR preemergence herbicidal rating: 5.0
  Preemergence herbicidal rating TRZAWR: 5.0
[14]; Rate 0.1250 kg/ha
  TRZAWR preemergence herbicidal rating: 7.0
  Preemergence herbicidal rating TRZAWR: 5.0
[14]; Rate 0.2500 kg/ha
  TRZAWR preemergence herbicidal rating: 8.0
  Preemergence herbicidal rating TRZAWR: 7.0
